Values of other authors as cited in US20210369646A1, “Composition for local tumescent anesthesia” (priority 2020, published 2021).
Like-named read-outs stand apart in the source and are kept apart here. Values belong to the compound of their own block, whether it stands above or below them.

Assays:
[1] = tested on: alpha 1 acid glycoprotein; conditions: bound to alpha 1 acid glycoprotein almost entirely
plasminogen = plasminogen (Homo sapiens, UniProt P00747)
Sequence of plasminogen (P00747 20-810 limits assumed): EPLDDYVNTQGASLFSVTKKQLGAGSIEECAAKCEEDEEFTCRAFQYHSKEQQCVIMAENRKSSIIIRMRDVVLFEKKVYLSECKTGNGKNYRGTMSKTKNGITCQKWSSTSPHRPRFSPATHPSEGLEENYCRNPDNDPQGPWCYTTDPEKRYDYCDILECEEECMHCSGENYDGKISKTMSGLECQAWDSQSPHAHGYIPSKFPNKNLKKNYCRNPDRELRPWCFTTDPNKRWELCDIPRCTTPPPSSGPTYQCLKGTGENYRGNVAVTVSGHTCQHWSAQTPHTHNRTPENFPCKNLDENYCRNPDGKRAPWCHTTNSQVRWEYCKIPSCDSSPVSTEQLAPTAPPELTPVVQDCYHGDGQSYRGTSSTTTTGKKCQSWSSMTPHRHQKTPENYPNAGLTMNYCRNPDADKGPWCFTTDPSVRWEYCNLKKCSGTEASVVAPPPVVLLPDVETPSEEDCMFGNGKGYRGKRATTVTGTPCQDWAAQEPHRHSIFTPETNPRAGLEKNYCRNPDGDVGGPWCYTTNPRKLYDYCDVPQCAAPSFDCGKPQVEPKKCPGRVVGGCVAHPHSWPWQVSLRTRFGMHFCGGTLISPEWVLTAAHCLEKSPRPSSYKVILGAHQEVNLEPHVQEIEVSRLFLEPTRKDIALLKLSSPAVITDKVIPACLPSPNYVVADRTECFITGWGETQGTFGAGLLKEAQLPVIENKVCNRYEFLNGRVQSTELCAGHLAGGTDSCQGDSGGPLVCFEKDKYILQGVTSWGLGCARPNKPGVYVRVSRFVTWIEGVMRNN

- total doses excreted into the urine (after next 18 hours): 50%
- total doses excreted into the urine (by the first 6 hours): 50%
- middle lifetime (in vivo): 20 s
- principal metabolite: conjugated metanephrine (in vivo): 40%
- principal metabolite: vanillylmandelic acid (in vivo): 40%
- maximum concentration after a subcutaneous injection (time) (subcutaneous injection): 20 to 40 min
Structure (SMILES): CNC[C@H](O)c1ccc(O)c(O)c1 [Epinephrine]

- excreted through the kidneys into the urine (in vivo): ~86%
- transformed into 3-hydroxy-ropivacaine (aromatic hydroxylation) (liver, share of all anesthetic agent): 99%
- free protein form [1]: 6%
Structure (SMILES): CCCN1CCCC[C@H]1C(=O)Nc1c(C)cccc1C [Ropivacaine]

- middle lifetime (after the administration): 11000 s
- excreted through the kidneys into the urine without a conjugated form (by the first 24 hours): 90%
- plasmatic protein bound (plasmatic protein): 3%
- free protein form (plasmatic protein; in words): no free protein form
- affinity to plasminogen (plasminogen): high affinity
Structure (SMILES): NC[C@H]1CC[C@H](C(=O)O)CC1 [Tranexamic acid]
